≈ marks a conversion by molar mass, not a printed value. Where two headings read alike, the source gives them in different places.
How the values were obtained:
[1] = Plasma protein binding assay (PPB), equilibrium dialysis, 10% FCS in PBS; type: in vitro ADME; details: bovine, read-out: PPB 10% FCS (% fu)
Method in brief: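 Equilibrium dialysis (5-10 kg/mol cut-off membrane) of 1-10 μmol/L test compound in 10% FCS/PBS against PBS with or without dextran, 3-5 h at 37° C. Compound in each chamber quantified by LC-MS after protein precipitation; fu calculated from Cserum and Cbuffer.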

[2] = Solubility measurement (DMSO solution method), McIlvaine buffer pH 4.5 or 6.8; type: physicochemical; details: aqueous buffer, kinetic from dmso stock, DMSO stock diluted to 250 μM, 24 h shaking at ambient temperature
Method in brief: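 DMSO stock diluted into McIlvaine buffer, pH 4.5 or 6.8, to 250 µM final, shaken 24 h at ambient temperature. Precipitate removed by filtration; filtrate quantified by LC-UV against a fully dissolved reference in acetonitrile/water 1:1.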

KRAS (G12C)::SOS1 = KRAS (G12C)::SOS1 (Homo sapiens (Human), UniProt P01116, C118S/C51S/C80L/G12C); assay: KRAS::SOS1 AlphaScreen binding assay, KRAS G12C
Chain of KRAS (G12C)::SOS1 (P01116 other isoform, or with tags, fused parts or gaps G12C/C51S/C80L/C118S): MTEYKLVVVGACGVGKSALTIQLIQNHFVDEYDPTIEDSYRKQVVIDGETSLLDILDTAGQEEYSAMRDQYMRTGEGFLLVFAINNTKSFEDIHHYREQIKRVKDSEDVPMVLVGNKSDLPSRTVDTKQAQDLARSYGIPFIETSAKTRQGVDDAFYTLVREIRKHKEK
Method in brief: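 Compounds (up to 100 μM, eleven fivefold dilutions in duplicate) were incubated 30 min with KRAS 1-169 (10 nM, or 7.5 nM for G12C), GST-SOS1 564-1049 (5 nM for G12D/G12C, 10 nM for others) and 10 μM GDP in PBS buffer with BSA and Tween. Donor/acceptor beads were then added for 60 min at room temperature, and IC50 came from a 4-parameter fit of the AlphaScreen signal.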

[3] = McIlvaine buffer pH 4.5, read-out: solubility pH 4.5
[4] = McIlvaine buffer pH 6.8, read-out: solubility pH 6.8

| SMILES | fraction unbound [1] | solubility at 24 h [2, 3] [µg/mL] | solubility at 24 h [2, 4] [µg/mL] | IC50 (KRAS (G12C)::SOS1) [nM] |
| --- | --- | --- | --- | --- |
| C[C@H](Oc1cc(N2CCNC[C@]23CCOC3)nc(-c2noc3c2CCC[C@@]32CCCc3sc(N)c(C#N)c32)n1)[C@@H]1CCCN1C [II-50] | 0.38 | > 144 | > 135 | 2 |
| CO[C@@H]1C[C@@H]([C@H](C)Oc2cc(-c3ccn(C4COC4)n3)nc(-c3noc4c3CCC[C@@]43CCCc4sc(N)c(C#N)c43)n2)N(C)C1 [II-107] | 0.24 | > 162 | < 1 | 2 |
| C[C@H](Oc1cc(N2C[C@H](C)NC3(CC3)C2)nc(-c2onc3c2CCC[C@@]32CCCc3sc(N)c(C#N)c32)n1)[C@@H]1CCCN1C [I-8] | 0.77 | > 146 | 116 (≈ 189 µM) | 4 |
| C[C@H]1CN(C)CCCN1c1cc(N2CCN(C)CC2)nc(-c2onc3c2CCC[C@@]32CCCc3sc(N)c(C#N)c32)n1 [I-7] | 0.36 | > 139 | > 133 | 23 |
| CO[C@@H]1C[C@@H]([C@H](C)Oc2cc(-c3ccn(C)n3)nc(-c3noc4c3CCC[C@@]43CCCc4sc(N)c(C#N)c43)n2)N(C)C1 [II-91] | 0.08 | 118 (≈ 196 µM) | < 1 | 2 |
| C[C@H](Oc1cc(-n2ccc(C#N)n2)nc(-c2noc3c2CCC[C@@]32CCCc3sc(N)c(C#N)c32)n1)[C@@H]1CCCN1C [II-102] | 0.04 | 24 (≈ 41.3 µM) | < 1 | 2 |
| C[C@H](Oc1cc(N2C[C@H](C)N[C@@H](C)C2)nc(-c2onc3c2CCC[C@@]32CCCc3sc(N)c(C#N)c32)n1)[C@@H]1CCCN1C [I-6] | 0.94 | > 147 | > 144 | 5 |
| C[C@H](Oc1cc(N2CC[C@@H](O)C2)nc(-c2noc3c2CCC[C@@]32CCCc3sc(N)c(C#N)c32)n1)[C@@H]1CCCN1C [II-66] | 0.41 | > 117 | 112 (≈ 195 µM) | 2 |
| Cc1nc(-c2cc(O[C@@H](C)[C@@H]3CCCN3C)nc(-c3noc4c3CCC[C@@]43CCCc4sc(N)c(C#N)c43)n2)cs1 [II-103] | 0.07 | 53 (≈ 90.2 µM) | < 1 | 2 |
| C[C@H](Oc1cc(C2=CCOCC2)nc(-c2noc3c2CCC[C@@]32CCCc3sc(N)c(C#N)c32)n1)[C@@H]1CCCN1C [II-67] | 0.23 | 98 (≈ 171 µM) | 41 (≈ 71.6 µM) | 2 |
| C[C@H](Oc1cc(-c2ccncc2)nc(-c2noc3c2CCC[C@@]32CCCc3sc(N)c(C#N)c32)n1)[C@@H]1CCCN1C [II-78] | 0.49 | 41 (≈ 72.2 µM) | 3 (≈ 5.28 µM) | 2 |
| CC(=O)N1CC=C(c2cc(O[C@@H](C)[C@@H]3CCCN3C)nc(-c3noc4c3CCC[C@@]43CCCc4sc(N)c(C#N)c43)n2)CC1 [II-81] | 0.52 | 114 (≈ 186 µM) | 84 (≈ 137 µM) | 3 |
| C[C@H](Oc1cc(-c2ccc(N)nc2)nc(-c2noc3c2CCC[C@@]32CCCc3sc(N)c(C#N)c32)n1)[C@@H]1CCCN1C [II-101] | 0.23 | 88 (≈ 151 µM) | 2 (≈ 3.43 µM) | 2 |
| C[C@H](Oc1cc(-c2ccn(C3COC3)n2)nc(-c2noc3c2CCC[C@@]32CCCc3sc(N)c(C#N)c32)n1)[C@@H]1C[C@H](F)CN1C [II-83] | 0.18 | < 1 | < 1 | 5 |

Continued by falling IC50 (KRAS (G12C)::SOS1), values first:

| fraction unbound [1] | solubility at 24 h [2, 3] [µg/mL] | solubility at 24 h [2, 4] [µg/mL] | IC50 (KRAS (G12C)::SOS1) [nM] | SMILES |
| --- | --- | --- | --- | --- |
| 0.8 | > 149 | > 147 | 5 | C[C@H](Oc1cc(N2CCN3CCC3C2)nc(-c2onc3c2CCC[C@@]32CCCc3sc(N)c(C#N)c32)n1)[C@@H]1CCCN1C (stereo partly drawn) [I-9] |
| 0.05 | 97 (≈ 164 µM) | 20 (≈ 33.8 µM) | 3 | C[C@H](Oc1cc(-n2ccnc2Cl)nc(-c2noc3c2CCC[C@@]32CCCc3sc(N)c(C#N)c32)n1)[C@@H]1CCCN1C [II-93] |
| 0.66 | 102 (≈ 179 µM) | 72 (≈ 127 µM) | 3 | C[C@H](Oc1cc(-c2cncnc2)nc(-c2noc3c2CCC[C@@]32CCCc3sc(N)c(C#N)c32)n1)[C@@H]1CCCN1C [II-82] |
| 0.16 | > 143 | > 134 | 2 | C[C@H](Oc1cc(N2CCOC3(COC3)C2)nc(-c2noc3c2CCC[C@@]32CCCc3sc(N)c(C#N)c32)n1)[C@@H]1CCCN1C [II-77] |
| 0.48 | > 144 | > 146 | 2 | C[C@H](Oc1cc(N2C[C@H](C)N[C@@H](C)C2)nc(-c2noc3c2CCC[C@@]32CCCc3sc(N)c(C#N)c32)n1)[C@@H]1CCCN1C [II-56] |
| 0.34 | 112 (≈ 196 µM) | 60 (≈ 105 µM) | 2 | C[C@H](Oc1cc(-c2cnn(C)n2)nc(-c2noc3c2CCC[C@@]32CCCc3sc(N)c(C#N)c32)n1)[C@@H]1CCCN1C [II-86] |
| 0.1 | > 146 | 89 (≈ 145 µM) | 2 | C[C@H](Oc1cc(N2CCCC3(COC3)C2)nc(-c2noc3c2CCC[C@@]32CCCc3sc(N)c(C#N)c32)n1)[C@@H]1CCCN1C [II-72] |
| 0.64 | > 133 | > 123 | 2 | C[C@H](Oc1cc(N2CCC[C@@H](O)C2)nc(-c2noc3c2CCC[C@@]32CCCc3sc(N)c(C#N)c32)n1)[C@@H]1CCCN1C [II-59] |
| 0.26 | 111 (≈ 184 µM) | 41 (≈ 68.1 µM) | 2 | C[C@H](Oc1cc(N2CCOC3(CC3)C2)nc(-c2noc3c2CCC[C@@]32CCCc3sc(N)c(C#N)c32)n1)[C@@H]1CCCN1C [II-61] |
| 0.15 | > 154 | 102 (≈ 179 µM) | 2 | Cc1nccn1-c1cc(O[C@@H](C)[C@@H]2CCCN2C)nc(-c2noc3c2CCC[C@@]32CCCc3sc(N)c(C#N)c32)n1 [II-79] |
| 0.44 | 122 (≈ 198 µM) | 98 (≈ 159 µM) | 2 | CNC(=O)c1cn(-c2cc(O[C@@H](C)[C@@H]3CCCN3C)nc(-c3noc4c3CCC[C@@]43CCCc4sc(N)c(C#N)c43)n2)nn1 [II-122] |
| 0.39 | > 173 | 107 (≈ 168 µM) | 2 | C[C@H](Oc1cc(-n2cc(Cn3ccnc3)nn2)nc(-c2noc3c2CCC[C@@]32CCCc3sc(N)c(C#N)c32)n1)[C@@H]1CCCN1C [II-113] |
| 0.18 | 117 (≈ 191 µM) | 61 (≈ 99.5 µM) | 2 | C[C@H](Oc1cc(-c2ccn(C3COC3)n2)nc(-c2noc3c2CCC[C@@]32CCCc3sc(N)c(C#N)c32)n1)[C@@H]1CCCN1C [II-109] |
| 0.61 | > 122 | 104 (≈ 181 µM) | 2 | C[C@H](Oc1cc(C2CCOCC2)nc(-c2noc3c2CCC[C@@]32CCCc3sc(N)c(C#N)c32)n1)[C@@H]1CCCN1C [II-76] |
| 0.18 | 3 (≈ 4.94 µM) | < 1 | 2 | C[C@H](Oc1cc(-c2ccn3ncnc3c2)nc(-c2noc3c2CCC[C@@]32CCCc3sc(N)c(C#N)c32)n1)[C@@H]1CCCN1C [II-104] |
| 0.31 | > 126 | > 122 | 1 | C[C@H](Oc1cc([C@@H]2CCOC2)nc(-c2noc3c2CCC[C@@]32CCCc3sc(N)c(C#N)c32)n1)[C@@H]1CCCN1C [II-94] |

From patent US20240174690A1, “ANNULATED 2-AMINO-3-CYANO THIOPHENES AND DERIVATIVES FOR THE TREATMENT OF CANCER” (BOEHRINGER INGELHEIM INTERNATIONAL GMBH, priority 2021, published 2024)
